Data as given in PubChem BioAssay (NCI).
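Where inhibition never reached the appropriate level, the endpoint shown equals the highest concentration tested. Otherwise, values were interpolated linearly from a five-concentration, 48-hour dose response in 96-well plates. TGI: concentration producing complete growth inhibition.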

How the values were obtained:
Assay in all cases: NCI tumour cell line growth inhibition, 48 h
[1] = tested on: M14 melanoma
[2] = tested on: COLO 205 colon
[3] = tested on: NCI-H522 lung
[4] = tested on: MDA-N
[5] = tested on: SF-295 CNS
[6] = tested on: PC-3 prostate
[7] = tested on: CAKI-1 renal
[8] = tested on: SF-539 CNS
[9] = tested on: 786-0 renal
[10] = tested on: A498 renal
[11] = tested on: OVCAR-3 ovarian
[12] = tested on: HCT-116 colon
[13] = tested on: RPMI-8226 leukemia
[14] = tested on: A549 NSCLC
[15] = tested on: HCC-2998 colon
[16] = tested on: T-47D breast
[17] = tested on: HOP-62 NSCLC
[18] = tested on: TK-10 renal
[19] = tested on: SN12C renal
[20] = tested on: UO-31 renal
[21] = tested on: SW-620 colon
[22] = tested on: NCI-H460 lung
[23] = tested on: HOP-92 NSCLC
[24] = tested on: EKVX NSCLC
[25] = tested on: KM12 colon
[26] = tested on: MALME-3M melanoma
[27] = tested on: SR leukemia
[28] = tested on: SK-MEL-2 melanoma
[29] = tested on: HL-60(TB) leukemia
[30] = tested on: SK-OV-3 ovarian
[31] = tested on: NCI-H23 lung
[32] = tested on: UACC-257 melanoma
[33] = tested on: OVCAR-5 ovarian
[34] = tested on: IGROV1 ovarian
[35] = tested on: MOLT-4 leukemia
[36] = tested on: CCRF-CEM leukemia
[37] = tested on: U251 CNS
[38] = tested on: K-562 leukemia
[39] = tested on: MCF7 breast
[40] = tested on: SK-MEL-5 melanoma
[41] = tested on: UACC-62 melanoma
[42] = tested on: MDA-MB-231 breast
[43] = tested on: HCT-15 colon
[44] = tested on: LOX IMVI melanoma
[45] = tested on: ACHN renal
[46] = tested on: NCI/ADR-RES ovarian
[47] = tested on: RXF 393 renal
[48] = tested on: HS 578T breast
[49] = tested on: NCI-H226 lung
[50] = tested on: SNB-19 CNS
[51] = tested on: MDA-MB-435
[52] = tested on: DU-145 prostate
[53] = tested on: HT29 colon
[54] = tested on: SK-MEL-28 melanoma
[55] = tested on: SF-268 CNS
[56] = tested on: SNB-75 CNS
[57] = tested on: OVCAR-4 ovarian
[58] = tested on: OVCAR-8 ovarian

Measured: TGI

COc1ccc(CCN2CCOCC2)cc1
> 100 µM: [1] | [2] | [3] | [4] | [5] | [6] | [7] | [8] | [9] | [10] | [11] | [12] | [13] | [14] | [15] | [16] | [17] | [18] | [19] | [20] | [21] | [22] | [23] | [24] | [25] | [26] | [27] | [28] | [29] | [30] | [31] | [32] | [33] | [34] | [35] | [36] | [37] | [38] | [39] | [40] | [41] | [42] | [43] | [44] | [45] | [46] | [47] | [48] | [49] | [50] | [51] | [52] | [53] | [54] | [55]

OC1NC2CC3NC(O)C(O)NC3CC2NC1O (configuration not stated)
> 100 µM: [1] | [2] | [3] | [4] | [56] | [5] | [6] | [7] | [8] | [9] | [11] | [12] | [13] | [14] | [15] | [16] | [17] | [18] | [19] | [20] | [21] | [22] | [23] | [24] | [25] | [26] | [27] | [28] | [29] | [30] | [31] | [32] | [33] | [34] | [35] | [36] | [37] | [38] | [57] | [39] | [40] | [41] | [42] | [43] | [44] | [45] | [46] | [47] | [48] | [49] | [50] | [51] | [58] | [52] | [53] | [54] | [55]
